Calls of active or inactive are those of the source. No cut-off for these calls is given here.
How the values were obtained:
[1] = test system: A549; assay: Antiproliferative activity against human A549 cells assessed as inhibition of cell growth by MTT assay; assay type: functional, cell-based
[2] = test system: HCT-116; assay: Antiproliferative activity against human HCT-116 cells assessed as inhibition of cell growth by MTT assay; assay type: functional, cell-based
[3] = test system: HT-29; assay: Antiproliferative activity against human HT-29 cells assessed as inhibition of cell growth by MTT assay; assay type: functional, cell-based
[4] = test system: HeLa; assay: Antiproliferative activity against human HeLa cells assessed as inhibition of cell growth by MTT assay; assay type: functional, cell-based
[5] = Antiproliferative activity against HEK293 cells assessed as inhibition of cell growth by MTT assay; assay type: toxicity, cell-based; conditions: human
[6] = biological target: T1, Tubulin (Homo sapiens) (UniProt P68371+Q9H4B7+P0DPH7+P68366+Q13509+Q71U36+P04350+Q3ZCM7+P07437+P68363+Q9BQE3+Q6PEY2+Q13885+Q9BVA1+Q9BUF5); assay: Inhibition of tubulin polymerization (unknown origin) at 10 uM measured upto 30 mins by spectrophotometry based analysis relative to control; assay type: protein-complex assay
[7] = biological target: Tubulin; assay: Inhibition of tubulin polymerization (unknown origin) measured upto 30 mins by spectrophotometry based analysis; assay type: protein-complex assay, Homo sapiens
[8] = test system: A549; assay: Induction of cell cycle arrest in human A549 cells assessed as accumulation of cells at G0/G1 phase at 1.2 uM measured after 24 hrs by PI staining based flow cytometry analysis (reference value: 55.88%); assay type: functional
[9] = test system: A549; assay: Induction of cell cycle arrest in human A549 cells assessed as accumulation of cells at G0/G1 phase at 2.4 uM measured after 24 hrs by PI staining based flow cytometry analysis (reference value: 55.88%); assay type: functional
[10] = test system: A549; assay: Induction of cell cycle arrest in human A549 cells assessed as accumulation of cells at G0/G1 phase at 4.8 uM measured after 24 hrs by PI staining based flow cytometry analysis (reference value: 55.88%); assay type: functional
[11] = test system: A549; assay: Induction of cell cycle arrest in human A549 cells assessed as accumulation of cells at G2/M phase at 1.2 uM measured after 24 hrs by PI staining based flow cytometry analysis (reference value: 21.00%); assay type: functional
[12] = test system: A549; assay: Induction of cell cycle arrest in human A549 cells assessed as accumulation of cells at G2/M phase at 2.4 uM measured after 24 hrs by PI staining based flow cytometry analysis (reference value: 21.00%); assay type: functional
[13] = test system: A549; assay: Induction of cell cycle arrest in human A549 cells assessed as accumulation of cells at G2/M phase at 4.8 uM measured after 24 hrs by PI staining based flow cytometry analysis (reference value: 21.00%); assay type: functional
[14] = test system: A549; assay: Induction of cell cycle arrest in human A549 cells assessed as accumulation of cells at S phase at 1.2 uM measured after 24 hrs by PI staining based flow cytometry analysis (reference value: 23.17%); assay type: functional
[15] = test system: A549; assay: Induction of cell cycle arrest in human A549 cells assessed as accumulation of cells at S phase at 2.4 uM measured after 24 hrs by PI staining based flow cytometry analysis (reference value: 23.17%); assay type: functional
[16] = test system: A549; assay: Induction of cell cycle arrest in human A549 cells assessed as accumulation of cells at S phase at 4.8 uM measured after 24 hrs by PI staining based flow cytometry analysis (reference value: 23.17%); assay type: functional
[17] = test system: A549; assay: Induction of apoptosis in human A549 cells assessed as viable cells at 1.2 uM measured after 24 hrs by annexin-V/PI staining based flow cytometry analysis (reference value: 97.4%); assay type: functional; conditions: read-out: Activity
[18] = test system: A549; assay: Induction of apoptosis in human A549 cells assessed as viable cells at 2.4 uM measured after 24 hrs by annexin-V/PI staining based flow cytometry analysis (reference value: 97.4%); assay type: functional; conditions: read-out: Activity
[19] = test system: A549; assay: Induction of apoptosis in human A549 cells assessed as viable cells at 4.8 uM measured after 24 hrs by annexin-V/PI staining based flow cytometry analysis (reference value: 97.4%); assay type: functional; conditions: read-out: Activity
[20] = test system: A549; assay: Induction of apoptosis in human A549 cells assessed as early apoptotic cells at 1.2 uM measured after 24 hrs by annexin-V/PI staining based flow cytometry analysis (reference value: 1.87%); assay type: functional
[21] = test system: A549; assay: Induction of apoptosis in human A549 cells assessed as early apoptotic cells at 2.4 uM measured after 24 hrs by annexin-V/PI staining based flow cytometry analysis (reference value: 1.87%); assay type: functional
[22] = test system: A549; assay: Induction of apoptosis in human A549 cells assessed as early apoptotic cells at 4.8 uM measured after 24 hrs by annexin-V/PI staining based flow cytometry analysis (reference value: 1.87%); assay type: functional
[23] = test system: A549; assay: Induction of apoptosis in human A549 cells assessed as late apoptotic cells at 1.2 uM measured after 24 hrs by annexin-V/PI staining based flow cytometry analysis (reference value: 0.25%); assay type: functional
[24] = test system: A549; assay: Induction of apoptosis in human A549 cells assessed as late apoptotic cells at 2.4 uM measured after 24 hrs by annexin-V/PI staining based flow cytometry analysis (reference value: 0.25%); assay type: functional
[25] = test system: A549; assay: Induction of apoptosis in human A549 cells assessed as late apoptotic cells at 4.8 uM measured after 24 hrs by annexin-V/PI staining based flow cytometry analysis (reference value: 0.25%); assay type: functional
[26] = test system: A549; assay: Induction of apoptosis in human A549 cells assessed as necrotic cells at 1.2 uM measured after 24 hrs by annexin-V/PI staining based flow cytometry analysis (reference value: 0.48%); assay type: functional
[27] = test system: A549; assay: Induction of apoptosis in human A549 cells assessed as necrotic cells at 2.4 uM measured after 24 hrs by annexin-V/PI staining based flow cytometry analysis (reference value: 0.48%); assay type: functional
[28] = test system: A549; assay: Induction of apoptosis in human A549 cells assessed as necrotic cells at 4.8 uM measured after 24 hrs by annexin-V/PI staining based flow cytometry analysis (reference value: 0.48%); assay type: functional
[29] = test system: A549; assay: Induction of cell cycle arrest in human A549 cells assessed as accumulation of cells at G2/M phase measured after 24 hrs by PI staining based flow cytometry analysis; assay type: functional; conditions: dose 1.2-4.8 µM
[30] = test system: A549; assay: Induction of apoptosis in human A549 cells assessed measured after 24 hrs by annexin-V/PI staining based flow cytometry analysis; assay type: functional, cell-based; conditions: dose 1.2-4.8 µM
[31] = biological target: T1, Tubulin (Homo sapiens); assay: Inhibition of tubulin polymerization (unknown origin) at 6 uM measured upto 30 mins by spectrophotometry analysis; assay type: protein-complex assay
[32] = biological target: T1, Tubulin (Homo sapiens); assay: Inhibition of tubulin polymerization (unknown origin) at 10 uM measured upto 30 mins by spectrophotometry analysis; assay type: protein-complex assay

COc1ccc(/C=C(/C(=O)Nc2ccccc2)c2cc(OC)c(OC)c(OC)c2)cc1O
IC50 [1]: 2.42 µM
IC50 [2]: 6.28 µM
IC50 [3]: 5.33 µM
IC50 [4]: 10.3 µM
IC50 [5]: > 100 µM
inhibition [6]: 62%
IC50 [7]: 6.9 µM
Activity [8]: 53.47%
Activity [9]: 40.69%
Activity [10]: 53.73%
Activity [11]: 28.81%
Activity [12]: 46.63%
Activity [13]: 32.36%
Activity [14]: 22.72%
Activity [15]: 32.71%
Activity [16]: 13.9%
viability at 1.2 µM [17]: 96.4%
viability at 2.4 µM [18]: 93.1%
viability at 4.8 µM [19]: 86.9%
Activity [20]: 1.98%
Activity [21]: 1.87%
Activity [22]: 4.97%
Activity [23]: 1.35%
Activity [24]: 3.33%
Activity [25]: 5.15%
Activity [26]: 0.27%
Activity [27]: 1.65%
Activity [28]: 2.96%
Activity [29]: Dose-Dependent Effect
Activity [30]: Dose-Dependent Effect
inhibition [31]: Active

COc1ccc(/C=C(/C(=O)Nc2ccc(C)cc2)c2cc(OC)c(OC)c(OC)c2)cc1OC(C)=O
IC50 [1]: 3.99 µM

COc1ccc(/C=C(/C(=O)Nc2ccc(Cl)cc2)c2cc(OC)c(OC)c(OC)c2)cc1OC(C)=O
IC50 [1]: 2.64 µM
IC50 [2]: 20.5 µM
IC50 [3]: 30.2 µM
IC50 [4]: 17.3 µM
IC50 [5]: > 100 µM
inhibition [6]: 3%

COc1ccc(/C=C(/C(=O)Nc2ccc(Cl)cc2)c2cc(OC)c(OC)c(OC)c2)cc1O
IC50 [1]: > 50 µM

COc1ccc(/C=C(/C(=O)Nc2ccc(N3CCN(C)CC3)cc2)c2cc(OC)c(OC)c(OC)c2)cc1OC(C)=O
IC50 [1]: > 50 µM

COc1ccc(NC(=O)/C(=C/c2ccc(OC)c(O)c2)c2cc(OC)c(OC)c(OC)c2)cc1
IC50 [1]: > 50 µM

COc1ccc(/C=C(/C(=O)Nc2ccc(C(C)C)cc2)c2cc(OC)c(OC)c(OC)c2)cc1O
IC50 [1]: 43.4 µM

COc1ccc(/C=C(/C(=O)NCc2ccccc2)c2cc(OC)c(OC)c(OC)c2)cc1O
IC50 [1]: > 50 µM

CCc1ccc(NC(=O)/C(=C/c2ccc(OC)c(O)c2)c2cc(OC)c(OC)c(OC)c2)cc1
IC50 [1]: > 50 µM

COc1ccc(/C=C(/C(=O)NC2CCCC2)c2cc(OC)c(OC)c(OC)c2)cc1O
IC50 [1]: > 50 µM

COc1ccc(/C=C(/C(=O)Nc2cc(OC)c(OC)c(OC)c2)c2cc(OC)c(OC)c(OC)c2)cc1O
IC50 [1]: > 50 µM

CCN1CCN(c2ccc(NC(=O)/C(=C/c3ccc(OC)c(O)c3)c3cc(OC)c(OC)c(OC)c3)cc2)CC1
IC50 [1]: 45.7 µM

COc1ccc(/C=C(/C(=O)Nc2ccc(C)cc2)c2cc(OC)c(OC)c(OC)c2)cc1O
IC50 [1]: 24.5 µM

COc1ccc(/C=C(/C(=O)Nc2ccc(N3CCN(C)CC3)cc2)c2cc(OC)c(OC)c(OC)c2)cc1O
IC50 [1]: > 50 µM

COc1ccc(/C=C(/C(=O)NC2CC2)c2cc(OC)c(OC)c(OC)c2)cc1OC(C)=O
IC50 [1]: > 50 µM

CCc1ccc(NC(=O)/C(=C/c2ccc(OC)c(OC(C)=O)c2)c2cc(OC)c(OC)c(OC)c2)cc1
IC50 [1]: 3.53 µM

COc1ccc(/C=C(/C(=O)NC2CC2)c2cc(OC)c(OC)c(OC)c2)cc1O
IC50 [1]: > 50 µM

COc1ccc(NC(=O)/C(=C/c2ccc(OC)c(OC(C)=O)c2)c2cc(OC)c(OC)c(OC)c2)cc1
IC50 [1]: 3.01 µM

CC(=O)O[C@H]1C(=O)[C@@]2(C)[C@H]([C@H](OC(=O)c3ccccc3)[C@]3(O)C[C@H](OC(=O)[C@H](O)[C@@H](NC(=O)c4ccccc4)c4ccccc4)C(C)=C1C3(C)C)[C@]1(OC(C)=O)CO[C@@H]1C[C@@H]2O
inhibition [32]: inactive

COc1ccc(/C=C(/C(=O)NC2CCCC2)c2cc(OC)c(OC)c(OC)c2)cc1OC(C)=O
IC50 [1]: > 50 µM

COc1ccc(/C=C(/C(=O)Nc2cc(OC)c(OC)c(OC)c2)c2cc(OC)c(OC)c(OC)c2)cc1OC(C)=O
IC50 [1]: 0.73 µM
IC50 [2]: 5.49 µM
IC50 [3]: 4.71 µM
IC50 [4]: 9.79 µM
IC50 [5]: > 100 µM
inhibition [6]: 34%

COc1ccc(/C=C(/C(=O)NCc2ccccc2)c2cc(OC)c(OC)c(OC)c2)cc1OC(C)=O
IC50 [1]: 33.8 µM

COc1ccc(/C=C(/C(=O)Nc2ccc(C(C)C)cc2)c2cc(OC)c(OC)c(OC)c2)cc1OC(C)=O
IC50 [1]: 1.08 µM
IC50 [2]: 28.6 µM
IC50 [3]: 18.1 µM
IC50 [4]: 23.4 µM
IC50 [5]: > 100 µM
inhibition [6]: 3%

COc1ccc(/C=C\c2cc(OC)c(OC)c(OC)c2)cc1O [COMBRETASTATIN A4]
IC50 [1]: 0.11 µM
IC50 [2]: 4.77 µM
IC50 [3]: 1.65 µM
IC50 [4]: 0.08 µM
IC50 [5]: 48.1 µM

COc1ccc(/C=C(/C(=O)Nc2ccccc2)c2cc(OC)c(OC)c(OC)c2)cc1OC(C)=O
IC50 [1]: 3.91 µM

CCN1CCN(c2ccc(NC(=O)/C(=C/c3ccc(OC)c(OC(C)=O)c3)c3cc(OC)c(OC)c(OC)c3)cc2)CC1
IC50 [1]: 4.85 µM
